{"source": "ChEMBL document CHEMBL1139994", "about": "“Discovery of novel dialkyl substituted thiophene inhibitors of HCV by in silico screening of the NS5B RdRp” (Bioorg Med Chem Lett, 2007)", "key": {"[1]": {"system": "Hepatitis C virus", "test": "Inhibition of HCV replicase complex in cell-free assay", "conditions": "Hepacivirus hominis"}, "[2]": {"test": "Ratio of CC50 for Huh7 cells to EC50 for HCV", "assay_type": "functional, Huh-7"}, "[3]": {"target": "Hepatitis C virus", "test": "Antiviral activity against HCV by replicon assay"}}, "data": [{"smiles": "CCc1c(C)sc(NC(=O)CCc2ccccc2)c1C(=O)O", "values": [{"measurement": "IC50", "setting": "[1]", "value": "> 100", "unit": "µM"}]}, {"smiles": "CCC1CCc2c(sc(NC(=O)CCc3ccccc3)c2C(N)=O)C1", "note": "(stereo not given)", "values": [{"measurement": "Ratio CC50/EC50", "setting": "[2]", "value": 3}, {"measurement": "EC50", "setting": "[3]", "value": 1.95, "unit": "µM"}, {"measurement": "IC50", "setting": "[1]", "value": 30, "unit": "µM"}]}, {"smiles": "CCC1CCc2c(sc(NC(=O)CCc3ccccc3)c2C#N)C1", "note": "(stereo not given)", "values": [{"measurement": "IC50", "setting": "[1]", "value": "> 100", "unit": "µM"}]}, {"smiles": "CCc1c(C)sc(NC(=O)CCc2ccccc2)c1C#N", "values": [{"measurement": "Ratio CC50/EC50", "setting": "[2]", "value": 3}, {"measurement": "EC50", "setting": "[3]", "value": 1.66, "unit": "µM"}, {"measurement": "IC50", "setting": "[1]", "value": 25, "unit": "µM"}]}, {"smiles": "CCc1c(C)sc(NC(=O)CCc2ccccc2)c1C(N)=O", "values": [{"measurement": "Ratio CC50/EC50", "setting": "[2]", "value": 3}, {"measurement": "EC50", "setting": "[3]", "value": 0.92, "unit": "µM"}, {"measurement": "IC50", "setting": "[1]", "value": 50, "unit": "µM"}]}, {"smiles": "CCOC(=O)c1c(NC(=O)CCc2ccccc2)sc(C)c1CC", "values": [{"measurement": "IC50", "setting": "[1]", "value": "> 100", "unit": "µM"}]}, {"smiles": "Cc1sc(NC(=O)CCc2ccccc2)c(C(N)=O)c1C", "values": [{"measurement": "IC50", "setting": "[1]", "value": "> 100", "unit": "µM"}]}, {"smiles": "NC(=O)c1c(NC(=O)CCc2ccccc2)sc2c1CCCC2", "values": [{"measurement": "IC50", "setting": "[1]", "value": "> 100", "unit": "µM"}]}, {"smiles": "CC1CCc2c(sc(NC(=O)CCc3ccccc3)c2C(N)=O)C1", "note": "(stereo not given)", "values": [{"measurement": "IC50", "setting": "[1]", "value": "> 100", "unit": "µM"}]}]}
